This data set in a line: in vitro. The following applies: human, hela cells, % viability.

The viability is a read-out of living cells in per cent, often relative to untreated cells. Turning to `Cn1ccc(CN2CCOC(c3nccs3)C2)cc1=O` (stereo not drawn) [CBK304921], the viability at 28.5 h, 10 µM was determined as 88.8%.

`Cc1cc(F)c(S(N)(=O)=O)cc1NC(=O)CN1CCOCC1` [CBK051649C]: the viability at 28.5 h, 10 µM is 104%.

Turning to `Cc1cc(NC(=O)CCC2CCCCC2)nc2c1c(=O)oc1ccccc12` [CBK291125], the viability at 28.5 h, 10 µM came to 111%.

For the compound `Cc1cc(NC(=O)C(C)SCc2cccc(C(F)(F)F)c2)no1` (stereo not drawn) [CBK306233], the viability at 28.5 h, 10 µM came to 95.5%.

As for `COc1ccc2cc(OCCO)ccc2c1` [CBK176054], the viability at 28.5 h, 10 µM is 63.6%.

On to `CC(Cn1cncn1)C(=O)N1CCC(CCc2ccccc2F)CC1` (stereo not drawn) [CBK281529], for which the viability at 28.5 h, 10 µM was determined as 96%.

Consider `CNC(=O)c1cnc(SC)nc1NCCc1c[nH]c2ccccc12` [CBK093597], for which the viability at 28.5 h, 10 µM amounted to 104%.

Turning to `O=C(Nc1ccc(I)cc1)c1ccc(CN2CCc3ccccc3C2)cc1` [CBK262672], the viability at 28.5 h, 10 µM stood at 101%.

For `c1cnc(OC2CCN(Cc3ccc4c(c3)OCO4)CC2)c(OCCN2CCOCC2)n1` [CBK082925T], the viability at 28.5 h, 10 µM amounted to 115%.

With `O=C(NC1CCCCC1)c1cc(S(=O)(=O)N2CCOCC2)ccc1Cl` [CBK261662], the viability at 28.5 h, 10 µM was 96%.

As to `Cc1cc(C)c2c(N)c(C(=O)Nc3ccc(Br)cc3)sc2n1` [CBK072019], the viability at 28.5 h, 10 µM came to 108%.

Take `Cc1ccc(S(=O)(=O)c2ccccc2)cc1S(=O)(=O)NCc1ccncc1` [CBK270073]: the viability at 28.5 h, 10 µM amounted to 98.4%.

As to `Cc1ccc(S(=O)(=O)N2CCN(c3ccc([N+](=O)[O-])c(N4CCN(C)CC4)c3)CC2)cc1` [CBK264795], the viability at 28.5 h, 10 µM was determined as 118%.

Regarding `O=c1[nH]c2ncc(-c3cccc(-c4ccccc4)c3)nc2n1CCCN1CCOCC1` [CBK064311], the viability at 28.5 h, 10 µM worked out at 92.1%.

As to `Cc1nc(NS(=O)(=O)Cc2ccccc2)sc1C(=O)O` [CBK045552], the viability at 28.5 h, 10 µM came to 110%.

In the case of `COC(=O)c1cc(C#N)c(=O)n(CC(O)COc2cccc(Br)c2)c1` (stereo not drawn) [CBK304984], the viability at 28.5 h, 10 µM amounted to 80.5%.

With `CC1(C)Cc2ccccc2C(NC(Cc2ccccc2)C(=O)O)=N1` (stereo not drawn) [CBK262533], the viability at 28.5 h, 10 µM was 107%.

Turning to `CC1(C)C2CCC1(CS(=O)(=O)N1CCC(C(N)=O)CC1)C(=O)C2` (stereo not drawn) [CBK269499], the viability at 28.5 h, 10 µM is 102%.

In the case of `c1ccc(-c2cn3ccnc3c(NCC3CCOCC3)n2)cc1` [CBK037356], the viability at 28.5 h, 10 µM is 99.1%.

As for `COC(=O)[C@H]1CN(C(=O)c2cnn(C)c2C)C[C@@H]1c1ccc(F)cc1` [CBK283721], the viability at 28.5 h, 10 µM was 84.5%.

Regarding `O=S(=O)(NCc1nc(-c2ccccc2)no1)c1ccc(F)cc1` [CBK268198], the viability at 28.5 h, 10 µM stood at 93.3%.

As to `Cc1ccccc1-n1ncc2c1ncn1nc(-c3ccccc3)nc21` [CBK287797], the viability at 28.5 h, 10 µM was determined as 94.3%.

As to `Cc1cc(C)c(NC(=O)CSc2nnc(-c3cccnc3)s2)c([N+](=O)[O-])c1` [CBK268929], the viability at 28.5 h, 10 µM worked out at 102%.

In the case of `COc1cccc(-c2cnc3[nH]c(=O)n(Cc4ccc(Cl)cc4)c3n2)c1` [CBK064596], the viability at 28.5 h, 10 µM amounted to 111%.

For `CC(C)[C@H](CO)Nc1nccnc1-c1ccc(C(=O)N2CCOCC2)cc1` [CBK037012], the viability at 28.5 h, 10 µM was 97.7%.

Take `Cn1nccc1C(=O)NC(Cc1ccsc1)c1cccnc1` (stereo not drawn) [CBK285394]: the viability at 28.5 h, 10 µM stood at 98.6%.

As for `O=C(CCN1C(=O)/C(=C\C=C\c2ccccc2)SC1=S)Nc1ccc(C(=O)O)cc1` [CBK264818], the viability at 28.5 h, 10 µM was 104%.

Take `COc1ccc(Oc2ncnc3c2oc2ccccc23)cc1` [CBK291224]: the viability at 28.5 h, 10 µM worked out at 86.4%.

Take `Cc1cc(S(=O)(=O)NCc2ccccc2-n2ccnc2)ccc1F` [CBK281477]: the viability at 28.5 h, 10 µM stood at 92.1%.

On to `Clc1ccc(C2(N3CCC(N4CCOCC4)CC3)CC2)cc1` [CBK282722], for which the viability at 28.5 h, 10 µM is 90.8%.

For `CC(=O)N1CCN([C@H]2[C@@H]3OC[C@@H](O3)[C@@H](NCC3CCCCC3)[C@@H]2O)CC1` [CBK288809], the viability at 28.5 h, 10 µM was determined as 90.6%.

For `Cc1nc(C)c(C(=O)N2C3CCC2c2cc(Cl)cnc2C3)s1` (stereo not drawn) [CBK284953], the viability at 28.5 h, 10 µM was determined as 103%.

In the case of `Cc1cccc(N2CCN(C(=O)C3CCN(Cc4cccc(OCc5ccccc5)c4)CC3)CC2)c1C` [CBK264328G], the viability at 28.5 h, 10 µM is 94.3%.

As to `CC(=O)Nc1ccc(S(=O)(=O)N(C)CC(=O)O)cc1` [CBK267570], the viability at 28.5 h, 10 µM is 97.8%.

As to `O=C(NOCc1ccccc1)c1nn(-c2ncccn2)c2ccccc12` [CBK048503], the viability at 28.5 h, 10 µM was determined as 93.1%.

Take `O=c1ccn([C@@H]2O[C@H](CO)[C@H](O)C2O)c(=O)[nH]1` (stereo partly drawn) [CBK201159]: the viability at 28.5 h, 10 µM was found to be 95.1%.

Regarding `Cn1c(C(=O)N2CCc3ccccc32)cc2ccccc21` [CBK200406], the viability at 28.5 h, 10 µM was determined as 110%.

In the case of `O=C(NCc1ccccn1)C1CCC(Cn2c(=S)[nH]c3ccccc3c2=O)CC1` (stereo not drawn) [CBK266645], the viability at 28.5 h, 10 µM came to 95.6%.

On to `CC1CCCCN1C(=O)CN1C(=O)N2CCCN=C2c2ccccc21` (stereo not drawn) [CBK284393], for which the viability at 28.5 h, 10 µM is 79.8%.

Turning to `CCOc1cc(NC2CCN(C(=O)NCC(F)F)CC2)ncn1` [CBK305485], the viability at 28.5 h, 10 µM turned out to be 85.6%.

With `Cc1ccc(OCC(=O)Nc2ncc(Cc3ccc(F)cc3)s2)cc1` [CBK293930], the viability at 28.5 h, 10 µM worked out at 82.2%.

With `CCCNc1nccnc1-c1cc(C)c(O)c(C)c1` [CBK037210], the viability at 28.5 h, 10 µM came to 87.6%.

As for `Cc1cc(C2CCCN2C(=O)c2cnn3c(C)cc(C)nc23)on1` (stereo not drawn) [CBK305634], the viability at 28.5 h, 10 µM came to 109%.

For `O=C(Nc1nc(-c2cccnc2)cs1)c1ccccc1` [CBK287569], the viability at 28.5 h, 10 µM amounted to 91.3%.

For the compound `Cc1cc(C)c(OCC(=O)Nc2cccc(-c3nc4cc(C(C)C)ccc4o3)c2)c([N+](=O)[O-])c1` [CBK264680], the viability at 28.5 h, 10 µM stood at 88.6%.

With `CC(C)(C)C(=O)NC(=S)NNC(=O)c1ccncc1` [CBK269304], the viability at 28.5 h, 10 µM is 90.6%.

On to `O=C(NC1CCCCCC1)c1[nH]nc(O)c1Cc1c(Cl)cccc1Cl` [CBK107847], for which the viability at 28.5 h, 10 µM came to 91.9%.

Consider `CN(C)c1cccc(Nc2cc(-c3cccc([N+](=O)[O-])c3)ncn2)c1` [CBK091012], for which the viability at 28.5 h, 10 µM amounted to 102%.

For the compound `OC1(c2ccc(F)cc2)CC2CCC(C1)N2Cc1ccccn1` (stereo not drawn) [CBK283490], the viability at 28.5 h, 10 µM was determined as 108%.

On to `CC(C)C[C@@H]1N[C@H](C(=O)NC2CCC2)Cc2cn(Cc3nccn3C)c3cccc1c23` [CBK289422], for which the viability at 28.5 h, 10 µM is 101%.

Consider `COc1cc(OC)nc(C(NC(=O)C2CCN(Cc3ccccc3F)CC2)c2ccc(Cl)cc2)n1` (stereo not drawn) [CBK148152], for which the viability at 28.5 h, 10 µM came out at 98%.

For the compound `Cc1cc2nc(C3CCCN3C(=O)CN3CCCCC3)[nH]c2cc1C` (stereo not drawn) [CBK282944], the viability at 28.5 h, 10 µM was 91.3%.

For the compound `NCCN(C(=O)CCc1cc(C(F)(F)F)cc(C(F)(F)F)c1)c1ccc2c(c1)OCO2` [CBK000701T], the viability at 28.5 h, 10 µM came to 105%.

`CC(C)(C)C(=O)N1CCC(c2nc3ccccc3cc2N)CC1` [CBK285039]: the viability at 28.5 h, 10 µM stood at 101%.

Turning to `Cc1ccc(Oc2ccc([N+](=O)[O-])cc2F)c(Br)c1` [CBK002821], the viability at 28.5 h, 10 µM is 90.3%.

As for `CCc1c(C(=O)NCCn2ccnc2C)[nH]c2ccc(F)cc12` [CBK283314], the viability at 28.5 h, 10 µM was determined as 92.9%.

Consider `CNc1nc2c(ncn2C2CC(O)C(CO)O2)c(=O)[nH]1` (stereo not drawn) [CBK201312], for which the viability at 28.5 h, 10 µM was 100%.

(Values after PMC12040169 (PLOS Biology, 2025).)
